Molecules are shown by their SMILES.

The target in one assay is T1, PTPN2 (B16F10.4 cells) (Mus musculus, UniProt Q06180).
T1 construct: HiBiT; host or cells: B16F10.4
T1 sequence (Q06180 1-406): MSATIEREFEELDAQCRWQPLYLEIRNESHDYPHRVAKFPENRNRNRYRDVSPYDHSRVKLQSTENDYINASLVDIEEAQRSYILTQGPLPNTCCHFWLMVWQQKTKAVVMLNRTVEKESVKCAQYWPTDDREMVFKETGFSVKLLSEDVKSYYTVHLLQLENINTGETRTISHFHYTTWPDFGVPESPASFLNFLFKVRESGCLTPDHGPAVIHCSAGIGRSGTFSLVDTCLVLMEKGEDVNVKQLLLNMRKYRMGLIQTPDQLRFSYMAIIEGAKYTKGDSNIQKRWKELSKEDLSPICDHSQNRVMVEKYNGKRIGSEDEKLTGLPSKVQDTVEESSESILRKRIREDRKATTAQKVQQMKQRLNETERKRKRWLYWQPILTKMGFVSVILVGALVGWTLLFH
As to the kind of experiment: HiBiT Degradation B16F10.4 PTPN2. As to conditions: 24.0 hours. Type of assay: cell-based.

The target of assay [1] is T2, PTPN2 (HiBIT-PTPN2 in 293T.109 cells) (Homo sapiens, UniProt P17706).
T2 construct: expressed in transfected cells; host or cells: 293T.109 (293T WT from ATCC)
T2 sequence (P17706 1-415): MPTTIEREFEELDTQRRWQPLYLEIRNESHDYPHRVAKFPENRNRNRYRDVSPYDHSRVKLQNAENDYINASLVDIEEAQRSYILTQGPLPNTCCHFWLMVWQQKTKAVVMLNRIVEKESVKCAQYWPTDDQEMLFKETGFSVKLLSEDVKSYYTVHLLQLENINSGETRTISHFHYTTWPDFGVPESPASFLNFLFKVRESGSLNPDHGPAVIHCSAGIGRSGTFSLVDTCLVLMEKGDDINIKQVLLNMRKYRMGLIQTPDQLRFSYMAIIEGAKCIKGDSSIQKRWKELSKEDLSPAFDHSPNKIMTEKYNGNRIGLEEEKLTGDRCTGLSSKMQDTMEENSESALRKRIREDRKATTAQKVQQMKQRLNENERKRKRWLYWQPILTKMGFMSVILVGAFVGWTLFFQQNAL
In words: HiBiT Degradation 293T.109 PTPN2 (Nano-Glo HiBiT Lytic Assay). Type of assay: cell-based. To be noted: 24.0 hours. A digest of the protocol:
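Degradation read-out: lytic HiBiT luminescence after 24 h treatment (37 °C, 5% CO2) of 5000 293T cells per well expressing HiBiT-fused PTPN2 from an N-terminal tag. Dosing was 11 points, half-log steps down from 10 μM, in duplicate; vehicle-treated and no-reagent wells served as controls.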

For the compound `Cn1c(=O)n(C2CCC(=O)NC2=O)c2ccc(NC3CCN(C(=O)Nc4cccc(CS(=O)(=O)N5CC[C@H](Nc6cccc(-c7sc(C(=O)O)c(OCC(=O)O)c7Cl)c6)CC5(C)C)c4)CC3)cc21` (stereo partly drawn) [Example 81, 3-(carboxymethoxy)-4-chloro-5-[3-[[(4S)-1-[[3-[[4-[[1-(2,6-dioxo-3-piperidyl)-3-methyl-2-oxo-benzimidazol-5-yl]amino]piperidine-1-carbonyl]amino]phenyl]methylsulfonyl]-2,2-dimethyl-4-piperidyl]amino]phenyl]thiophene-2-carboxylic acid], the DC50 (on PTPN2 (B16F10.4 cells); in assay [1]) was 50 to 200 nM throughout.

For `Cn1c(=O)n(C2CCC(=O)NC2=O)c2cccc(C3CCN(C(=O)Nc4cccc(CS(=O)(=O)N5CCC(Nc6cccc(-c7sc(C(=O)O)c(OCC(=O)O)c7Cl)c6)CC5)c4)CC3)c21` (stereo not shown) [Example 52, 3-(carboxymethoxy)-4-chloro-5-[3-[[1-[[3-[[4-[1-(2,6-dioxo-3-piperidyl)-3-methyl-2-oxo-benzimidazol-4-yl]piperidine-1-carbonyl]amino]phenyl]methylsulfonyl]-4-piperidyl]amino]phenyl]thiophene-2-carboxylic acid], the DC50 (at PTPN2 (B16F10.4 cells); in assay [1]) was 200 to 1000 nM throughout.

Consider `Cn1c(=O)n([C@@H]2CCC(=O)NC2=O)c2ccc(C3CCN(C(=O)Nc4cccc(CS(=O)(=O)N5CC[C@H](Nc6cccc(-c7sc(C(=O)O)c(OCC(=O)O)c7Cl)c6)CC5(C)C)c4)CC3)cc21` (single isomer, unassigned) [Example 235], for which the DC50 (on PTPN2 (B16F10.4 cells); in assay [1]) was under 50 nM in each case.

As for `CC1(C)C[C@@H](Nc2cccc(-c3sc(C(=O)O)c(OCC(=O)O)c3Cl)c2)CCN1S(=O)(=O)Cc1cccc(NC(=O)CCn2cc(CNc3cccc4c3C(=O)N(C3CCC(=O)NC3=O)C4=O)nn2)c1` (stereo partly drawn) [Example 13, 3-(carboxymethoxy)-4-chloro-5-(3-(((4S)-1-((3-(3-(4-(((2-(2,6-dioxopiperidin-3-yl)-1,3-dioxoisoindolin-4-yl)amino)methyl)-1H-1,2,3-triazol-1-yl)propanamido)benzyl)sulfonyl)-2,2-dimethylpiperidin-4-yl)amino)phenyl)thiophene-2-carboxylic acid], the DC50 (at PTPN2 (B16F10.4 cells); in assay [1]) was 200 to 1000 nM throughout.

As to `CC1(C)C[C@@H](Nc2cccc(-c3sc(C(=O)O)c(OCC(=O)O)c3Cl)c2)CCN1S(=O)(=O)Cc1cccc(NC(=O)C2CN(C(=O)CNc3cccc4c3CN([C@@H]3CCC(=O)NC3=O)C4=O)C2)c1` (single isomer, unassigned) [Example 44a], the DC50 at PTPN2 (B16F10.4 cells) was 200 to 1000 nM; in assay [1], under 50 nM.

In the case of `CC1(C)C[C@@H](Nc2cccc(-c3sc(C(=O)O)c(OCC(=O)O)c3Cl)c2)CCN1S(=O)(=O)Cc1cccc(NC(=O)C2CN(C(=O)CNc3cccc4c3CN(C3CCC(=O)NC3=O)C4=O)C2)c1` (stereo partly drawn) [Example 44, 3-(Carboxymethoxy)-4-chloro-5-(3-(((4S)-1-((3-(1-((2-(2,6-dioxopiperidin-3-yl)-1-oxoisoindolin-4-yl)glycyl)azetidine-3-carboxamido)benzyl)sulfonyl)-2,2-dimethylpiperidin-4-yl)amino)phenyl)thiophene-2-carboxylic acid], the DC50 was 200 to 1000 nM on PTPN2 (B16F10.4 cells) and under 50 nM in assay [1].

Consider `Cn1c(=O)n(C2CCC(=O)NC2=O)c2ccc(OC3CCN(C(=O)Nc4cccc(CS(=O)(=O)N5CC[C@H](Nc6cccc(-c7sc(C(=O)O)c(OCC(=O)O)c7Cl)c6)CC5(C)C)c4)CC3)cc21` (stereo partly shown) [Example 118], for which the DC50 was in the range of 50 to 200 nM on PTPN2 (B16F10.4 cells) and 200 to 1000 nM in assay [1].

As for `CC1(C)C[C@@H](Nc2cccc(-c3sc(C(=O)O)c(OCC(=O)O)c3Cl)c2)CCN1S(=O)(=O)Cc1cccc(NC(=O)CCC(=O)NCc2ccc3c4c(cccc24)C(=O)N3C2CCC(=O)NC2=O)c1` (stereo partly drawn) [Example 220, 3-(carboxymethoxy)-4-chloro-5-(3-(((4S)-1-((3-(4-(((1-(2,6-dioxopiperidin-3-yl)-2-oxo-1,2-dihydrobenzo[cd]indol-6-yl)methyl)amino)-4-oxobutanamido)benzyl)sulfonyl)-2,2-dimethylpiperidin-4-yl)amino)phenyl)thiophene-2-carboxylic acid], the DC50 (on PTPN2 (B16F10.4 cells); in assay [1]) was 50 to 200 nM throughout.

`COCCn1c(=O)n(C2CCC(=O)NC2=O)c2ccc(C3CCN(C(=O)Nc4cccc(CS(=O)(=O)N5CC[C@H](Nc6cccc(-c7sc(C(=O)O)c(OCC(=O)O)c7Cl)c6)CC5(C)C)c4)CC3)cc21` (stereo partly drawn) [Example 160, 3-(carboxymethoxy)-4-chloro-5-(3-(((4S)-1-((3-(4-(1-(2,6-dioxopiperidin-3-yl)-3-(2-methoxyethyl)-2-oxo-2,3-dihydro-1H-benzo[d]imidazol-5-yl)piperidine-1-carboxamido)benzyl)sulfonyl)-2,2-dimethylpiperidin-4-yl)amino)phenyl)thiophene-2-carboxylic acid]: the DC50 (at PTPN2 (B16F10.4 cells); in assay [1]) was 50 to 200 nM throughout.

On to `C[C@@H]1CN(C(=O)Nc2cccc(CS(=O)(=O)N3CC[C@H](Nc4cccc(-c5sc(C(=O)O)c(OCC(=O)O)c5Cl)c4)CC3(C)C)c2)CCN1c1ccc2c(c1)n(C)c(=O)n2C1CCC(=O)NC1=O` (stereo partly drawn) [Example 209, 3-(carboxymethoxy)-4-chloro-5-[3-[[(4S)-1-[[3-[[(3R)-4-[1-(2,6-dioxo-3-piperidyl)-3-methyl-2-oxo-benzimidazol-5-yl]-3-methyl-piperazine-1-carbonyl]amino]phenyl]methylsulfonyl]-2,2-dimethyl-4-piperidyl]amino]phenyl]thiophene-2-carboxylic acid], for which the DC50 (on PTPN2 (B16F10.4 cells); in assay [1]) was 50 to 200 nM each time.

In the case of `O=C(O)COc1c(C(=O)O)sc(-c2cccc(NC3CCN(S(=O)(=O)Cc4cccc(NC(=O)CCOCCCc5cccc6c5C(=O)N(C5CCC(=O)NC5=O)C6=O)c4)CC3)c2)c1Cl` (stereo not shown) [Example 27, 3-(carboxymethoxy)-4-chloro-5-[3-[[1-[[3-[3-[3-[2-(2,6-dioxo-3-piperidyl)-1,3-dioxo-isoindolin-4-yl]propoxy]propanoylamino]phenyl]methylsulfonyl]-4-piperidyl]amino]phenyl]thiophene-2-carboxylic acid], the DC50 at PTPN2 (B16F10.4 cells) is at least 1000 nM; in assay [1], 200 to 1000 nM.

Consider `Cn1c(=O)n(C2CCC(=O)NC2=O)c2ccc(C3CCN(C(=O)Nc4cccc(CS(=O)(=O)N5CC[C@H](Nc6cccc(-c7sc(C(=O)O)c(OCC(=O)O)c7Cl)c6)CC5(C)C)c4)CC3)c(F)c21` (stereo partly drawn) [Example 152, 3-(carboxymethoxy)-4-chloro-5-[3-[[(4S)-1-[[3-[[4-[1-(2,6-dioxo-3-piperidyl)-4-fluoro-3-methyl-2-oxo-benzimidazol-5-yl]piperidine-1-carbonyl]amino]phenyl]methylsulfonyl]-2,2-dimethyl-4-piperidyl]amino]phenyl]thiophene-2-carboxylic acid], for which the DC50 (on PTPN2 (B16F10.4 cells); in assay [1]) was 50 to 200 nM throughout.

On to `CC1(C)C[C@@H](Nc2cccc(-c3sc(C(=O)O)c(OCC(=O)O)c3Cl)c2)CCN1S(=O)(=O)Cc1cccc(NC(=O)N2CCC(c3ccc4c5c(cccc35)C(=O)N4C3CCC(=O)NC3=O)CC2)c1` (stereo partly drawn) [Example 82, 3-(carboxymethoxy)-4-chloro-5-[3-[[(4S)-1-[[3-[[4-[1-(2,6-dioxo-3-piperidyl)-2-oxo-benzo[cd]indol-6-yl]piperidine-1-carbonyl]amino]phenyl]methylsulfonyl]-2,2-dimethyl-4-piperidyl]amino]phenyl]thiophene-2-carboxylic acid], for which the DC50 (at PTPN2 (B16F10.4 cells); in assay [1]) was under 50 nM throughout.

Consider `Cn1c(=O)n(C2CCC(=O)NC2=O)c2ccc(Cc3ccc(CC(=O)Nc4cccc(CS(=O)(=O)N5CC[C@H](Nc6cccc(-c7sc(C(=O)O)c(OCC(=O)O)c7Cl)c6)CC5(C)C)c4)cc3)cc21` (stereo partly drawn) [Example 236, 3-(carboxymethoxy)-4-chloro-5-[3-[[(4S)-1-[[3-[[2-[4-[[1-(2,6-dioxo-3-piperidyl)-3-methyl-2-oxo-benzimidazol-5-yl]methyl]phenyl]acetyl]amino]phenyl]methylsulfonyl]-2,2-dimethyl-4-piperidyl]amino]phenyl]thiophene-2-carboxylic acid], for which the DC50 (at PTPN2 (B16F10.4 cells); in assay [1]) was under 50 nM in each case.
